Columns and labels:
Test in all cases: relative viability (nuclei count vs DMSO), 5 days (fraction); higher = more cells survive
IPA-3 + Tozasertib = compound: C1=CC=C2C(=C1)C=CC(=C2SSC3=C(C=CC4=CC=CC=C43)O)O [IPA-3] + Cc1cc(Nc2cc(N3CCN(C)CC3)nc(Sc3ccc(NC(=O)C4CC4)cc3)n2)n[nH]1 [Tozasertib] (partner 0.1 µM)
Procedure, shortened: (§1)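 Each reported value is a median over duplicate plates. It expresses relative viability: treated-well nuclei count divided by vehicle-well nuclei count. Lung cancer cell lines in 1536-well plates were dosed by pin tool a day after seeding, alone with one drug or with a fixed anchor-drug dose plus five library-drug doses (not always all listed) in √10 steps, and nuclei were counted after 5 days.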

IPA-3 + Olaparib = compound: C1=CC=C2C(=C1)C=CC(=C2SSC3=C(C=CC4=CC=CC=C43)O)O [IPA-3] + O=C(c1cc(Cc2n[nH]c(=O)c3ccccc23)ccc1F)N1CCN(C(=O)C2CC2)CC1 [Olaparib] (partner 8 µM)
Procedure, shortened: as §1

[1] = compound: Cc1ccc(-n2nc(C(C)(C)C)cc2NC(=O)Nc2ccc(OCCN3CCOCC3)c3ccccc23)cc1 [Doramapimod] + CC(=O)c1c(C)c2cnc(Nc3ccc(N4CCNCC4)cn3)nc2n(C2CCCC2)c1=O [Palbociclib] (partner 0.5 µM)
Procedure, shortened: as §1

RAF265 + Navitoclax = compound: Cn1c(Nc2ccc(C(F)(F)F)cc2)nc2cc(Oc3ccnc(-c4ncc(C(F)(F)F)[nH]4)c3)ccc21 [RAF265] + CC1(C)CCC(c2ccc(Cl)cc2)=C(CN2CCN(c3ccc(C(=O)NS(=O)(=O)c4ccc(N[C@H](CCN5CCOCC5)CSc5ccccc5)c(S(=O)(=O)C(F)(F)F)c4)cc3)CC2)C1 [Navitoclax] (partner 0.5 µM)
Procedure, shortened: as §1

## UMC-11
IPA-3 + Tozasertib; first compound 0.2 µM
  relative viability: 0.202
IPA-3 + Tozasertib; first compound 0.6325 µM
  relative viability: 0.205
IPA-3 + Tozasertib; first compound 2 µM
  relative viability: 0.215
IPA-3 + Tozasertib; first compound 6.325 µM
  relative viability: 0.224
IPA-3 + Tozasertib; first compound 20 µM
  relative viability: 0.225
IPA-3 + Olaparib; first compound 0.2 µM
  relative viability: 1.06
IPA-3 + Olaparib; first compound 0.6325 µM
  relative viability: 0.459
IPA-3 + Olaparib; first compound 2 µM
  relative viability: 0.338
IPA-3 + Olaparib; first compound 6.325 µM
  relative viability: 0.361
IPA-3 + Olaparib; first compound 20 µM
  relative viability: 0.384
[1]; first compound 0.02 µM
  relative viability: 0.342
[1]; first compound 0.06325 µM
  relative viability: 0.328
[1]; first compound 0.2 µM
  relative viability: 0.313
[1]; first compound 0.6325 µM
  relative viability: 0.323
[1]; first compound 2 µM
  relative viability: 0.308
RAF265 + Navitoclax; first compound 0.01 µM
  relative viability: 0.316
RAF265 + Navitoclax; first compound 0.03162 µM
  relative viability: 0.326
RAF265 + Navitoclax; first compound 0.1 µM
  relative viability: 0.299
RAF265 + Navitoclax; first compound 0.3162 µM
  relative viability: 0.322
RAF265 + Navitoclax; first compound 1 µM
  relative viability: 0.327

From the supplement of paper PMC10307832
